From ChEMBL document CHEMBL2169878 (J Med Chem, 2012)
The source made the active and inactive calls. The rule behind the calls is not given here.

Legend:
[1] = biological target: T1, Chloroquine resistance transporter (Plasmodium falciparum) (UniProt Q9N623); experiment: Inhibition of chloroquine-sensitive Plasmodium falciparum D10 CRT expressed in Xenopus laevis oocyte assessed as inhibition of [3H]chloroquine uptake at 100 uM measured from 1 to 2 hrs
T1 sequence (whole entry): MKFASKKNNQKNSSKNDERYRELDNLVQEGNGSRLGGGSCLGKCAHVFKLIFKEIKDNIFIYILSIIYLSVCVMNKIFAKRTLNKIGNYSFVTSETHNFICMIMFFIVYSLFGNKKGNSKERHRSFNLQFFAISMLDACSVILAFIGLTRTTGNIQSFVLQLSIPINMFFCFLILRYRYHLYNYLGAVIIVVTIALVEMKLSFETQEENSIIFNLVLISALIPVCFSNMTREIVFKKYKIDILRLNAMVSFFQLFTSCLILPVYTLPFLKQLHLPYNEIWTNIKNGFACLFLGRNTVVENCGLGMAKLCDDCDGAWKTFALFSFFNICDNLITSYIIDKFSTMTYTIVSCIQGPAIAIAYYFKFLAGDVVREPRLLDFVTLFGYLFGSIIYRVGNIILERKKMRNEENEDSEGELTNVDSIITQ

[2] = system: Salmonella typhimurium; experiment: Mutagenicity against Salmonella typhimurium TA100 assessed as revertants at 1.5 uM incubated for 90 mins followed by drug washout measured after 2 days relative to positive control; format: toxicity, organism-based; details: salmonella enterica subsp. enterica serovar typhimurium, 1.5 h
[3] = system: Salmonella typhimurium; experiment: Mutagenicity against Salmonella typhimurium TA98 assessed as revertants at 1 uM incubated for 90 mins followed by drug washout measured after 2 days relative to positive control; format: toxicity, organism-based; details: salmonella enterica subsp. enterica serovar typhimurium
[4] = system: Plasmodium berghei; experiment: Antimalarial activity against Plasmodium berghei ANKA expressing GFP infected in mouse assessed as reduction in parasitemia at 30 mg/kg, po administered QD for 3 days measured 24 hrs post-final dosing by flow cytometric analysis; format: functional; set-up: scale not given: the % may be the effect or the level left
[5] = system: Plasmodium berghei; experiment: Antimalarial activity against Plasmodium berghei ANKA expressing GFP infected in mouse assessed as mean survival days at 30 mg/kg, po administered at 6,[…],[…] and 72 hrs post-infection (reference value: 6 to 7 days); format: functional
[6] = system: Plasmodium berghei; experiment: Antimalarial activity against Plasmodium berghei ANKA expressing GFP infected in mouse assessed as reduction in parasitemia at 50 mg/kg, po administered QD for 3 days measured 24 hrs post-final dosing by flow cytometric analysis; format: functional; set-up: scale not given: the % may be the effect or the level left
[7] = system: Plasmodium berghei; experiment: Antimalarial activity against Plasmodium berghei ANKA expressing GFP infected in mouse assessed as reduction in parasitemia at 30 mg/kg, po administered 24 hrs post-infection measured 48 hrs post-dosing by flow cytometric analysis; format: functional; set-up: scale not given: the % may be the effect or the level left
[8] = system: Salmonella typhimurium; experiment: Mutagenicity against Salmonella typhimurium TA98 assessed as revertants at 2 uM incubated for 90 mins followed by drug washout measured after 2 days relative to positive control; format: toxicity, organism-based; details: salmonella enterica subsp. enterica serovar typhimurium, 1.5 h
[9] = biological target: T1, Chloroquine resistance transporter (Plasmodium falciparum); experiment: Inhibition of chloroquine-resistant Plasmodium falciparum Dd2 CRT expressed in Xenopus laevis oocyte assessed as inhibition of [3H]chloroquine uptake at 100 uM measured from 1 to 2 hrs
[10] = system: Plasmodium berghei; experiment: Antimalarial activity against Plasmodium berghei ANKA expressing GFP infected in mouse assessed as mean survival days at 30 mg/kg, po administered QD for 3 days (reference value: 6 to 7 days); format: functional
[11] = Cytotoxicity against human HepG2 cells after 24 hrs by neutral red dye uptake assay; format: cell-based; details: read-out: TC50
[12] = system: Plasmodium berghei; experiment: Antimalarial activity against Plasmodium berghei ANKA expressing GFP infected in mouse assessed as mean survival days at 100 mg/kg, po administered 24 hrs post-infection (reference value: 6 to 7 days); format: functional
[13] = system: Plasmodium falciparum; experiment: Antiplasmodial activity against chloroquine-sensitive Plasmodium falciparum NF54 infected in human erythrocytes assessed as inhibition of [3H]hypoxanthine incorporation incubated for 48 hrs prior to [3H]hypoxanthine addition measured after 48 hrs by liquid scintillation counting; format: functional, organism-based
[14] = system: Salmonella typhimurium; experiment: Mutagenicity against Salmonella typhimurium TA100 assessed as revertants at 17 uM incubated for 90 mins followed by drug washout measured after 2 days relative to positive control; format: toxicity, organism-based; details: salmonella enterica subsp. enterica serovar typhimurium
[15] = system: Salmonella typhimurium; experiment: Mutagenicity against Salmonella typhimurium TA98 assessed as revertants at 8 uM incubated for 90 mins followed by drug washout measured after 2 days relative to positive control; format: toxicity, organism-based; details: salmonella enterica subsp. enterica serovar typhimurium, 1.5 h
[16] = system: Plasmodium berghei; experiment: Antimalarial activity against Plasmodium berghei ANKA expressing GFP infected in mouse assessed as mean survival days at 30 mg/kg, po administered 24 hrs post-infection (reference value: 6 to 7 days); format: functional
[17] = system: Plasmodium falciparum; experiment: Antiplasmodial activity against chloroquine-sensitive Plasmodium falciparum D10 infected in human RBC after 72 hrs by parasite lactate dehydrogenase assay; format: functional, organism-based; details: D10, 72 h
[18] = biological target: Chloroquine resistance transporter (Plasmodium falciparum, UniProt Q9N623); experiment: Inhibition of chloroquine-resistant Plasmodium falciparum Dd2 CRT expressed in Xenopus laevis oocyte assessed as inhibition of [3H]chloroquine uptake measured from 1 to 2 hrs
[19] = system: Salmonella typhimurium; experiment: Mutagenicity against Salmonella typhimurium TA100 assessed as revertants at 1 uM incubated for 90 mins followed by drug washout measured after 2 days relative to positive control; format: toxicity, organism-based; details: salmonella enterica subsp. enterica serovar typhimurium, 1.5 h
[20] = system: Salmonella typhimurium; experiment: Mutagenicity against Salmonella typhimurium TA100 assessed as revertants at 8 uM incubated for 90 mins followed by drug washout measured after 2 days relative to positive control; format: toxicity, organism-based; details: salmonella enterica subsp. enterica serovar typhimurium
[21] = system: Plasmodium berghei; experiment: Antimalarial activity against Plasmodium berghei ANKA expressing GFP infected in mouse assessed as mean survival days at 50 mg/kg, po administered QD for 3 days (reference value: 6 to 7 days); format: functional
[22] = system: Plasmodium berghei; experiment: Antimalarial activity against Plasmodium berghei ANKA expressing GFP infected in mouse assessed as reduction in parasitemia at 100 mg/kg, po administered 24 hrs post-infection measured 48 hrs post-dosing by flow cytometric analysis; format: functional; set-up: scale not given: the % may be the effect or the level left
[23] = system: Salmonella typhimurium; experiment: Mutagenicity against Salmonella typhimurium TA100 assessed as revertants at 34 uM incubated for 90 mins followed by drug washout measured after 2 days relative to positive control; format: toxicity, organism-based; details: salmonella enterica subsp. enterica serovar typhimurium
[24] = system: Plasmodium falciparum; experiment: Resistance ratio of IC50 for chloroquine-resistant Plasmodium falciparum K1 to IC50 for chloroquine-sensitive Plasmodium falciparum NF54; format: functional
[25] = system: Plasmodium berghei; experiment: Antimalarial activity against Plasmodium berghei ANKA expressing GFP infected in mouse assessed as cure from infection at 50 mg/kg, po administered QD for 3 days measured on day 30; format: functional, organism-based; set-up: dose 50 mg/kg
[26] = system: Salmonella typhimurium; experiment: Mutagenicity against Salmonella typhimurium TA100 assessed as revertants at 3 uM incubated for 90 mins followed by drug washout measured after 2 days relative to positive control; format: toxicity, organism-based; details: salmonella enterica subsp. enterica serovar typhimurium, 1.5 h
[27] = system: Plasmodium falciparum; experiment: Antiplasmodial activity against chloroquine-resistant Plasmodium falciparum W2 infected in human RBC after 72 hrs by parasite lactate dehydrogenase assay; format: functional, organism-based; details: W2, 72 h
[28] = system: Plasmodium berghei; experiment: Antimalarial activity against Plasmodium berghei ANKA expressing GFP infected in mouse assessed as cure from infection at 30 mg/kg, po administered 24 hrs post-infection measured on day 30; format: functional, organism-based; set-up: dose 30 mg/kg
[29] = system: Salmonella typhimurium; experiment: Mutagenicity against Salmonella typhimurium TA98 assessed as revertants at 34 uM incubated for 90 mins followed by drug washout measured after 2 days relative to positive control; format: toxicity, organism-based; details: salmonella enterica subsp. enterica serovar typhimurium, 1.5 h
[30] = system: Plasmodium falciparum; experiment: Antiplasmodial activity against chloroquine-resistant Plasmodium falciparum K1 infected in human erythrocytes assessed as inhibition of [3H]hypoxanthine incorporation incubated for 48 hrs prior to [3H]hypoxanthine addition measured after 48 hrs by liquid scintillation counting; format: functional, organism-based
[31] = Cytotoxicity against mouse NIH3T3 cells after 24 hrs by neutral red dye uptake assay; format: cell-based; details: read-out: TC50
[32] = system: Plasmodium falciparum; experiment: Resistance ratio of IC50 for chloroquine-resistant Plasmodium falciparum W2 to IC50 for chloroquine-sensitive Plasmodium falciparum D10; format: functional
[33] = system: Salmonella typhimurium; experiment: Mutagenicity against Salmonella typhimurium TA98 assessed as revertants at 4 uM incubated for 90 mins followed by drug washout measured after 2 days relative to positive control; format: toxicity, organism-based; details: salmonella enterica subsp. enterica serovar typhimurium
[34] = system: Plasmodium berghei; experiment: Antimalarial activity against Plasmodium berghei ANKA expressing GFP infected in mouse assessed as cure from infection at 100 mg/kg, po administered 24 hrs post-infection measured on day 30; format: functional, organism-based; set-up: dose 100 mg/kg
[35] = system: Salmonella typhimurium; experiment: Mutagenicity against Salmonella typhimurium TA98 assessed as revertants at 17 uM incubated for 90 mins followed by drug washout measured after 2 days relative to positive control; format: toxicity, organism-based; details: salmonella enterica subsp. enterica serovar typhimurium
[36] = system: Plasmodium berghei; experiment: Antimalarial activity against Plasmodium berghei ANKA expressing GFP infected in mouse assessed as cure from infection at 30 mg/kg, po administered at 6,24,48 and 72 hrs post-infection measured on day 30; format: functional, organism-based; set-up: dose 30 mg/kg
[37] = system: Plasmodium berghei; experiment: Antimalarial activity against Plasmodium berghei ANKA expressing GFP infected in mouse assessed as reduction in parasitemia at 30 mg/kg, po administered at 6,24,48 and 72 hrs post-infection measured 24 hrs post-final dosing by flow cytometric analysis; format: functional; set-up: scale not given: the % may be the effect or the level left
[38] = system: Plasmodium berghei; experiment: Antimalarial activity against Plasmodium berghei ANKA expressing GFP infected in mouse assessed as cure from infection at 30 mg/kg, po administered QD for 3 days measured on day 30; format: functional, organism-based; set-up: dose 30 mg/kg

Clc1cccc(C(Nc2ccnc3cc(Cl)ccc23)c2ccc(CN3CCNCC3)cc2)c1 (racemic)
inhibition [1]: inactive
Activity [2]: 5%
Activity [3]: 9%
Activity [4]: 99.8%
MSD [5]: 30 days
Activity [6]: 99.8%
Activity [7]: 99.7%
Activity [8]: 7%
inhibition [9]: Active
MSD [10]: 30 days
CC50 at 24 h [11]: < 4000 nM
MSD [12]: 29.6 days
IC50 [13]: 19 nM
Activity [14]: 7%
Activity [15]: 16%
MSD [16]: 24 days
IC50 [17]: 25 nM
IC50 [18]: 10500 nM
Activity [19]: 6%
Activity [20]: 5%
MSD [21]: 30 days
Activity [22]: 99.6%
Activity [23]: 2%
Ratio IC50 [24]: 1.2
Activity [25]: inactive
Activity [26]: 3%
IC50 [27]: 33 nM
Activity [28]: inactive
Activity [29]: 4%
IC50 [30]: 23 nM
CC50 at 24 h [31]: 16000 nM
Ratio IC50 [32]: 1.4
Activity [33]: 4%
Activity [34]: Active
Activity [35]: 11%
Activity [36]: Active
Activity [37]: 99.9%
Activity [38]: Active
